Test system: SYO-1 tumor spheroids, viability % test/control
Test: Anticancer human tumor SYO-1 cell line growth inhibition;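 further: spheroids exposed to agents for 7 days before viability read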;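 on viability, T/C: 100% = DMSO vehicle control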
Conditions: spheroids with HUVEC and MSC; for IC50: curve of first compound; for viability, T/C: stronger effect = lower value
Source text: Multicellular complex tumor spheroid response to DNA repair inhibitors in combination with DNA-damaging drugs
This study explores the anticancer activities of DNA-damaging drugs and inhibitors of DNA damage repair, both as single agents and in combinations. Complex tumor spheroids comprised of malignant cells, endothelial cells and mesenchymal stem cells served as an in vitro model for human solid tumors. This model system incorporates physiologically relevant features and patient-derived or established malignant cell lines with clinically relevant genetic alterations from many tumor types. Twenty-six patient-derived or established malignant cell lines were evaluated representing sarcoma, melanoma, small cell lung cancer (SCLC), non-small cell lung cancer (NSCLC), as well as bladder, ovarian and pancreatic cancers. The concentration ranges selected for each drug and investigational agent were based upon clinically achievable concentrations if the clinical Cmax of the agent was known.
Compounds. The drugs and compounds olaparib (NSC753686), talazoparib (NSC767125), berzosertib (NSC777718), elimusertib (NSC800525), nedisertib (NSC802822), VX-984 (NSC792969), AZD-1390 (NSC803789), temozolomide (NSC362856), topotecan (NSC609699), trabectedin (NSC813783), staurosporine (NSC755774), and gemcitabine (NSC613327) were obtained from the National Cancer Institute (NCI) Developmental Therapeutics Program Chemical Repository. The FDA-approved anticancer drug set is available from the Developmental Therapeutics Program at https://dtp.cancer.gov/organization/dscb/obtaining/available_plates.htm. […] The stock solutions were prepared in dimethyl sulfoxide (DMSO, Sigma-Aldrich, St. Louis, MO, cat. D2650) at 400-fold the tested concentration and stored at -70 degrees C. Prior to their use, the stock solutions were diluted in fresh medium and the final DMSO concentration in the assay was 0.25% (v/v). All drugs and investigational agents were tested over a range starting from a high concentration at or near the clinical Cmax and decreasing in half-log increments. If the clinical Cmax for an agent had not been determined, the highest concentration tested was 10 microM.
Cell Lines. The patient-derived cancer cell (PDC) lines: 156681-154-R-J1-PDC, 283228-195-R-J1-PDC, 287954-098-R-J1-PDC, 292921-168-R-J2-PDC, 349418-098-R-PDC, 425362-245-T-J1-PDC, 556581-035-R-J1-PDC, and BL0293-F563-PDC were received from the NCI Patient-Derived Models Repository (PDMR, https://pdmr.cancer.gov). The established cell lines HS-SY-2 (RRID:CVCL_8719), MPNST, and SYO-1 (RRID:CVCL_7146) were obtained from the Sloan Kettering Institute. The alveolar soft parts sarcoma cell line ASPS-1 (RRID:CVCL_S738) was established at the NCI and grown from internal seed stocks. The following established cell lines were purchased from the American Type Culture Collection (ATCC, Manassas, VA): G-401 (ATCC, cat. CRL-1441, RRID:CVCL_0270), SW982 (ATCC, cat. HTB-93, RRID:CVCL_1734), VA-ES-BJ (ATCC, cat. CRL-2138, RRID:CVCL_1785), NCI-H719 (ATCC, cat. CRL-5837, RRID:CVCL_1582), NCI-H196 (ATCC, cat. CRL-5823, RRID:CVCL_1509), NCI-H841 (ATCC, cat. CRL-5845, RRID:CVCL_1595), NCI-H1618 (ATCC, cat. CRL-5879, RRID:CVCL_1480), NCI-H1876 (ATCC, cat. CRL-5902, RRID:CVCL_1503), DMS 114 (ATCC, cat. CRL-2066; RRID:CVCL_1174), NCI-H211 (ATCC, cat. CRL-5824; RRID:CVCL_1529), and SW 1271 (ATCC, cat. CRL-2177, RRID:CVCL_1716). The small cell lung cancer cell line COR-L88 was purchased from Sigma-Aldrich (cat. 92031917-1VL, RRID:CVCL_1141). The non-small cell lung cancer cell lines NCI-H226 (RRID:CVCL_1544) and NCI-H322M (RRID:CVCL_1557) were established at the NCI and grown from internal seed stocks. Pooled donor human umbilical vein endothelial cells (HUVEC, Lonza, cat. CC-2519) and human mesenchymal stem cells (hMSC, Lonza, cat. PT-2501) were purchased from Lonza (Walkersville, MD).
Cell Culture. All cells were maintained in an incubator at 37 degrees C and 5% CO2 with 95% humidity. […]

In the case of `COc1cc(C)[nH]c(=O)c1CN1CCc2c(Cl)cc(C(OC)C3COC3)c(Cl)c2C1=O` (stereo not given) + CC[C@@]1(O)C(=O)OCc2c1cc1n(c2=O)Cc2cc3c(CN(C)C)c(O)ccc3nc2-1, the IC50 (second compound 0.003 µM) is reported as 0.777 µM, the IC50 (second compound 0.00949 µM) is reported as under 0.0316 µM and the IC50 (second compound 0.03 µM) is reported as under 0.0316 µM. The IC50 (second compound 0.0949 µM) was under 0.0316 µM, the IC50 (second compound 0.3 µM) was under 0.0316 µM and the viability, T/C (second compound 0.003 µM, first compound 0.0316 µM) was 99.8%. The viability, T/C (second compound 0.003 µM, first compound 0.1 µM) was 96.1%, the viability, T/C (second compound 0.003 µM, first compound 0.316 µM) was 71.5% and the viability, T/C (second compound 0.003 µM, first compound 1 µM) was 44.5%. The viability, T/C (second compound 0.003 µM, first compound 3.16 µM) was 33.9%, the viability, T/C (second compound 0.003 µM, first compound 10 µM) was 32.8% and the viability, T/C (second compound 0.00949 µM, first compound 0.0316 µM) was 22.7%. For the same compound, the viability, T/C (second compound 0.00949 µM, first compound 0.1 µM) was 18.1%, the viability, T/C (second compound 0.00949 µM, first compound 0.316 µM) was 8.42% and the viability, T/C (second compound 0.00949 µM, first compound 1 µM) was 5.82%. It also gave a viability, T/C (second compound 0.00949 µM, first compound 3.16 µM) of 5.77%, a viability, T/C (second compound 0.00949 µM, first compound 10 µM) of 4.94% and a viability, T/C (second compound 0.03 µM, first compound 0.0316 µM) of 1.81%. It also gave a viability, T/C (second compound 0.03 µM, first compound 0.1 µM) of 2.29%, a viability, T/C (second compound 0.03 µM, first compound 0.316 µM) of 2.26% and a viability, T/C (second compound 0.03 µM, first compound 1 µM) of 2.14%. For the same compound, the viability, T/C (second compound 0.03 µM, first compound 3.16 µM) was 2.28%, the viability, T/C (second compound 0.03 µM, first compound 10 µM) was 2.42% and the viability, T/C (second compound 0.0949 µM, first compound 0.0316 µM) was 1.63%. The viability, T/C (second compound 0.0949 µM, first compound 0.1 µM) was 1.59%, the viability, T/C (second compound 0.0949 µM, first compound 0.316 µM) was 1.59% and the viability, T/C (second compound 0.0949 µM, first compound 1 µM) was 1.68%. For the same compound, the viability, T/C (second compound 0.0949 µM, first compound 3.16 µM) was 1.72%, the viability, T/C (second compound 0.0949 µM, first compound 10 µM) was 1.9% and the viability, T/C (second compound 0.3 µM, first compound 0.0316 µM) was 2%. It also gave a viability, T/C (second compound 0.3 µM, first compound 0.1 µM) of 2.17%, a viability, T/C (second compound 0.3 µM, first compound 0.316 µM) of 2.06% and a viability, T/C (second compound 0.3 µM, first compound 1 µM) of 1.88%. For the same compound, the viability, T/C (second compound 0.3 µM, first compound 3.16 µM) was 1.89% and the viability, T/C (second compound 0.3 µM, first compound 10 µM) was 2.12%.

— PubChem BioAssay AID1845219 (Molecular Pharmacology Branch, DTP, NCI, 2023)
